In ChEMBL document CHEMBL1201862, “PubChem BioAssay data set” (2004):
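In this assay, cells in 96-well plates receive the compound at five concentrations for 48 hours. Endpoints are linearly interpolated between the surrounding concentrations. GI50: concentration for 50% inhibition of growth.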 The source made the active and inactive calls. Rule as the data show it: active = GI50 up to about 1.1 µM and inactive = higher.

Tests used:
Assay in all cases: NCI tumour cell line growth inhibition, 48 h
786-0 = tested on: 786-0
ACHN = tested on: ACHN
CAKI-1 = tested on: CAKI-1
COLO 205 = tested on: COLO 205
EKVX = tested on: EKVX
HCT-116 = tested on: HCT-116
HOP-92 = tested on: HOP-92
HT-29 = tested on: HT-29
KM12 = tested on: KM12
NCI-H522 = tested on: NCI-H522
OVCAR-3 = tested on: OVCAR-3
OVCAR-4 = tested on: OVCAR-4
SK-MEL-5 = tested on: SK-MEL-5
SK-OV-3 = tested on: SK-OV-3
SN12C = tested on: SN12C
SNB-19 = tested on: SNB-19
SNB-78 = tested on: SNB-78
RXF 393 = tested on: RXF 393
SNB-75 = tested on: SNB-75
MCF7 = tested on: MCF7

Structure (SMILES)	GI50 (786-0)	GI50 (ACHN)	GI50 (CAKI-1)	GI50 (COLO 205)	GI50 (EKVX)	GI50 (HCT-116)	GI50 (HOP-92)	GI50 (HT-29)	GI50 (KM12)	GI50 (NCI-H522)	GI50 (OVCAR-3)	GI50 (OVCAR-4)	GI50 (SK-MEL-5)	GI50 (SK-OV-3)	GI50 (SN12C)	GI50 (SNB-19)	GI50 (SNB-78)	GI50 (RXF 393)	GI50 (SNB-75)	GI50 (MCF7)
NC1=NN(c2ccccc2)C(=O)C1C(=O)C(=O)Nc1ccccc1 (stereo not given)	> 100 µM (inactive)	> 100 µM (inactive)	> 100 µM (inactive)	> 100 µM (inactive)	> 100 µM (inactive)	> 100 µM (inactive)	> 100 µM (inactive)	> 100 µM (inactive)	> 100 µM (inactive)	> 100 µM (inactive)	> 100 µM (inactive)	> 100 µM (inactive)	> 100 µM (inactive)	> 100 µM (inactive)	> 100 µM (inactive)	> 100 µM (inactive)	> 100 µM (inactive)			
O=c1cc[nH]c2ccc3nn[nH]c3c12	> 100 µM (inactive)	> 100 µM (inactive)	> 100 µM (inactive)	> 100 µM (inactive)	> 100 µM (inactive)	> 100 µM (inactive)	> 100 µM (inactive)	> 100 µM (inactive)	> 100 µM (inactive)		> 100 µM (inactive)	> 100 µM (inactive)	> 100 µM (inactive)	> 100 µM (inactive)	> 100 µM (inactive)	> 100 µM (inactive)	> 100 µM (inactive)	> 100 µM (inactive)	> 100 µM (inactive)	
O=C(Nc1cccc2c1[nH]c1c(-c3ccccc3)nccc12)c1ccccc1[N+](=O)[O-]		20.9 µM (inactive)	18.8 µM (inactive)	26.2 µM (inactive)	50.9 µM (inactive)	26.4 µM (inactive)	2.81 µM (inactive)	8.71 µM (inactive)	9.55 µM (inactive)			38.9 µM (inactive)			49.1 µM (inactive)	59.8 µM (inactive)	30.7 µM (inactive)	12.6 µM (inactive)	29.7 µM (inactive)	
COc1c(OC(C)=O)ccc(/C=C2\N=C(C)OC2=O)c1[N+](=O)[O-]	> 100 µM (inactive)	> 100 µM (inactive)	> 100 µM (inactive)	> 100 µM (inactive)		> 100 µM (inactive)	> 100 µM (inactive)	> 100 µM (inactive)	> 100 µM (inactive)	> 100 µM (inactive)		> 100 µM (inactive)	> 100 µM (inactive)	> 100 µM (inactive)	> 100 µM (inactive)	> 100 µM (inactive)	> 100 µM (inactive)	> 100 µM (inactive)	91.6 µM (inactive)	
CCN(C1=CC(=O)NC2CCCCN12)c1ccccc1 (stereo not given)	> 100 µM (inactive)	> 100 µM (inactive)	> 100 µM (inactive)	> 100 µM (inactive)	> 100 µM (inactive)	> 100 µM (inactive)		> 100 µM (inactive)	> 100 µM (inactive)		> 100 µM (inactive)	> 100 µM (inactive)	> 100 µM (inactive)	> 100 µM (inactive)	> 100 µM (inactive)	> 100 µM (inactive)	> 100 µM (inactive)	> 100 µM (inactive)	> 100 µM (inactive)	
O=C(c1ccco1)N(C(=S)N1CCN(c2ccccn2)CC1)c1ccccc1	> 100 µM (inactive)	> 100 µM (inactive)	> 100 µM (inactive)	> 100 µM (inactive)		> 100 µM (inactive)	> 100 µM (inactive)	> 100 µM (inactive)	> 100 µM (inactive)	> 100 µM (inactive)	> 100 µM (inactive)	> 100 µM (inactive)	> 100 µM (inactive)	> 100 µM (inactive)	> 100 µM (inactive)	> 100 µM (inactive)	> 100 µM (inactive)	> 100 µM (inactive)	> 100 µM (inactive)	
ClC(Cl)[Si]12OCCN(CCO1)CCO2	> 100 µM (inactive)	> 100 µM (inactive)	> 100 µM (inactive)	> 100 µM (inactive)		> 100 µM (inactive)	> 100 µM (inactive)	> 100 µM (inactive)	> 100 µM (inactive)	> 100 µM (inactive)	> 100 µM (inactive)		> 100 µM (inactive)	> 100 µM (inactive)	> 100 µM (inactive)	> 100 µM (inactive)	> 100 µM (inactive)	> 100 µM (inactive)	> 100 µM (inactive)	
CCC(C(=O)O)c1ccc(OCc2ccccc2)cc1 (stereo not given)		> 100 µM (inactive)	> 100 µM (inactive)	> 100 µM (inactive)	> 100 µM (inactive)	> 100 µM (inactive)	> 100 µM (inactive)	> 100 µM (inactive)	> 100 µM (inactive)	> 100 µM (inactive)	> 100 µM (inactive)	> 100 µM (inactive)	> 100 µM (inactive)	> 100 µM (inactive)	> 100 µM (inactive)	> 100 µM (inactive)	> 100 µM (inactive)	> 100 µM (inactive)	70 µM (inactive)	
Cc1ccc(C(=O)c2nnc(C(=O)c3ccc(C)cc3)nn2)cc1	28.2 µM (inactive)	76 µM (inactive)	74.3 µM (inactive)	70.1 µM (inactive)	59.6 µM (inactive)	57.5 µM (inactive)	32.1 µM (inactive)	61.9 µM (inactive)	62.7 µM (inactive)	35.5 µM (inactive)	43.4 µM (inactive)	41.1 µM (inactive)	50.9 µM (inactive)	19.3 µM (inactive)	45.3 µM (inactive)	41.5 µM (inactive)	> 100 µM (inactive)		> 100 µM (inactive)	
Cc1ccccc1NC(=O)C1C(=O)N(c2ccccc2C)C(=O)/C1=N\NC(N)=O (stereo not given)	> 100 µM (inactive)	> 100 µM (inactive)	> 100 µM (inactive)	> 100 µM (inactive)	> 100 µM (inactive)	> 100 µM (inactive)	> 100 µM (inactive)	> 100 µM (inactive)	> 100 µM (inactive)	> 100 µM (inactive)	> 100 µM (inactive)	> 100 µM (inactive)	> 100 µM (inactive)		> 100 µM (inactive)	> 100 µM (inactive)	> 100 µM (inactive)	> 100 µM (inactive)	37.5 µM (inactive)	
CCOc1ccccc1NC(=O)C1=C(C)NC(C)=C(C(=O)Nc2ccccc2OCC)C1c1ccc([N+](=O)[O-])cc1	> 100 µM (inactive)	> 100 µM (inactive)	> 100 µM (inactive)	67.9 µM (inactive)	54 µM (inactive)	> 100 µM (inactive)	10.5 µM (inactive)	75.5 µM (inactive)	41 µM (inactive)	> 100 µM (inactive)	> 100 µM (inactive)	68.9 µM (inactive)		> 100 µM (inactive)	> 100 µM (inactive)	> 100 µM (inactive)	> 100 µM (inactive)	> 100 µM (inactive)	53.1 µM (inactive)	
COC(=O)C1(O)CC(=O)CCC1c1ccc(OC)cc1 (stereo not given)	> 100 µM (inactive)	> 100 µM (inactive)	> 100 µM (inactive)	> 100 µM (inactive)	> 100 µM (inactive)	> 100 µM (inactive)	> 100 µM (inactive)	> 100 µM (inactive)	> 100 µM (inactive)	> 100 µM (inactive)	> 100 µM (inactive)	> 100 µM (inactive)	> 100 µM (inactive)	> 100 µM (inactive)	> 100 µM (inactive)	> 100 µM (inactive)	> 100 µM (inactive)		> 100 µM (inactive)	
CN(CCNC(=O)c1nn(-c2ccccc2)c2c1Cc1ccccc1-2)CCNC(=O)c1nn(-c2ccccc2)c2c1Cc1ccccc1-2	1.66 µM (inactive)	1.74 µM (inactive)	2.53 µM (inactive)	1.79 µM (inactive)	4.44 µM (inactive)	1.65 µM (inactive)	1.53 µM (inactive)	1.85 µM (inactive)	1.79 µM (inactive)	1.57 µM (inactive)	1.68 µM (inactive)	1.82 µM (inactive)	1.79 µM (inactive)	2 µM (inactive)	1.83 µM (inactive)	2.14 µM (inactive)		1.57 µM (inactive)	1.69 µM (inactive)	1.64 µM (inactive)
CC(=O)c1[nH]c(NCc2ccccc2)c(C(=S)Nc2ccccc2)c1N	17.3 µM (inactive)	29 µM (inactive)	31 µM (inactive)	28.4 µM (inactive)	27.1 µM (inactive)	18.4 µM (inactive)	14.9 µM (inactive)	31.3 µM (inactive)	17.9 µM (inactive)	0.0383 µM (active)	26.7 µM (inactive)	26.4 µM (inactive)	17.1 µM (inactive)	> 100 µM (inactive)	22.5 µM (inactive)	34.3 µM (inactive)		18.9 µM (inactive)	> 100 µM (inactive)	19.3 µM (inactive)
CN(C)CCOc1ccc2[nH]c(C(=O)N3CC(CCl)c4ccc(N)cc43)cc2c1 (stereo not given)	0.0687 µM (active)	0.0281 µM (active)	0.0489 µM (active)	0.083 µM (active)	0.231 µM (active)	0.0354 µM (active)	0.36 µM (active)	< 0.0358 µM (active)	0.0733 µM (active)	0.0154 µM (active)	0.0631 µM (active)	0.0703 µM (active)	0.0451 µM (active)	1.94 µM (inactive)	0.108 µM (active)	0.258 µM (active)		0.0182 µM (active)	0.112 µM (active)	0.0266 µM (active)
